In article PMC8347134, “Preparation of Antiproliferative Terpene-Alkaloid Hybrids by Free Radical-Mediated Modification of ent-Kauranic Derivatives” (Molecules, 2021):

Key:
[1] = tested on: NCI-H460; design: method as in earlier work; settings: reference drugs; cited from earlier work
[2] = tested on: hTERT RPE-1; experiment: Parallel cytotoxicity assay on non-cancerous retina cells; assay type: cell-based; settings: hTERT-RPE1, 72 h, duplicate, mean ± deviation
Protocol: (§1) A parallel cytotoxicity assay was performed on non-cancerous retina cells (hTERT RPE-1) in order to estimate the selectivity of the investigated compounds towards tumor cells. The inhibition of cell proliferation was calculated as IC50 by interpolation based on the semi-log dose response.
(§2) All cell lines were cultured as recommended by the suppliers. Culture media were purchased from Gibco Life Technologies, USA, and supplemented with 10% fetal bovine serum (HyClone, GE Healthcare Life Sciences, Logan, UT, USA). […] All stock solutions were prepared in DMSO.
(§3) After overnight incubation, cells were treated with the test compounds at seven different concentrations ranging from 100 to 6.4 × 10^−3 µM. […] The plates were incubated at 37 °C and monitored for 72 h in an IncuCyte® device (Essen BioScience Inc., Ann Arbor, MI, USA) for real-time imaging. Images were taken every 3 h, with one field imaged per well under 10× magnification. Cell growth was then quantified based on the percent cellular confluence as analysed by the IncuCyte® image analysis software and used to calculate IC50 values by linear interpolation. All tests have been performed in duplicate and the average values have been calculated.

[3] = tested on: Capan-1 (pancreatic adenocarcinoma); experiment: Cell proliferation assay (IncuCyte); assay type: cell-based; settings: for IC50: Homo sapiens, CAPAN-1, 72 h, duplicate, mean ± deviation; for SI Capan-1: ratio IC50 hTERT RPE-1 / IC50 Capan-1
Protocol: as §1, §2, §3

[4] = tested on: DND-41 (acute lymphoblastic leukemia); experiment: Cell proliferation assay (IncuCyte); assay type: cell-based; settings: for IC50: DND41, 72 h, duplicate, mean ± deviation; for SI DND-41: ratio IC50 hTERT RPE-1 / IC50 DND-41
Protocol: as §1, §2, §3

[5] = tested on: HCT-116 (colorectal carcinoma); experiment: Cell proliferation assay (IncuCyte); assay type: cell-based; settings: for IC50: Homo sapiens, HCT-116, 72 h, duplicate, mean ± deviation; for SI HCT-116: ratio IC50 hTERT RPE-1 / IC50 HCT-116
Protocol: as §1, §2, §3

[6] = tested on: HL-60 (acute myeloid leukemia); experiment: Cell proliferation assay (IncuCyte); assay type: cell-based; settings: for IC50: Homo sapiens, HL-60, 72 h, duplicate, mean ± deviation; for SI HL-60: ratio IC50 hTERT RPE-1 / IC50 HL-60
Protocol: as §1, §2, §3

[7] = tested on: K-562 (chronic myeloid leukemia); experiment: Cell proliferation assay (IncuCyte); assay type: cell-based; settings: for IC50: Homo sapiens, K562, 72 h, duplicate, mean ± deviation; for SI K-562: ratio IC50 hTERT RPE-1 / IC50 K-562
Protocol: as §1, §2, §3

[8] = tested on: NCI-H460 (lung carcinoma); experiment: Cell proliferation assay (IncuCyte); assay type: cell-based; settings: for IC50: Homo sapiens, NCI-H460, 72 h, duplicate, mean ± deviation; for SI NCI-H460: ratio IC50 hTERT RPE-1 / IC50 NCI-H460
Protocol: as §1, §2, §3

[9] = tested on: Z-138 (non-Hodgkin lymphoma); experiment: Cell proliferation assay (IncuCyte); assay type: cell-based; settings: for IC50: Homo sapiens, Z-138, 72 h, duplicate, mean ± deviation; for SI Z-138: ratio IC50 hTERT RPE-1 / IC50 Z-138
Protocol: as §1, §2, §3

[10] = tested on: seven different tumor cell lines; experiment: Proliferation assays, best value over the seven tumor cell lines; assay type: cell-based; settings: for SImax: highest selectivity index over the tumor cell lines (Figure 4); for IC50 for retina (hTERT RPE-1) cells fold higher than for cancerous cells: highest selectivity indices; for IC50: lowest IC50 over the tumor cell lines (Figure 4), read-out: IC50 min
Protocol: as §1, §2, §3

In the case of `N.N.[Cl][Pt][Cl]` [Cisplatin], the IC50 [1] is given as 5.33 µM.

`CCOC(=O)CCC1=C[C@@]23CC[C@H]4[C@@](C)(CCC[C@@]4(C)C(=O)OC)[C@@H]2CC[C@@H]1C3` [Compound 7] gave an IC50 [2] of 29.2 ± 1.2 µM, an IC50 [3] of 37.1 ± 3.9 µM and an IC50 [4] of 36.5 ± 0.7 µM. For the same compound, the IC50 [5] was 30.7 ± 16.4 µM, the IC50 [6] was 19.6 ± 7.7 µM and the “SI HL-60” value [6] was 1.5. The IC50 [7] was 24.7 ± 11.8 µM, the “SI K-562” value [7] was 1.2 and the IC50 [8] was 12 ± 1.5 µM. For the same compound, the “SI NCI-H460” value [8] was 2.4, the IC50 [9] was 27.6 ± 15.5 µM and the “SI Z-138” value [9] was 1.1.

In the case of `CCOC(=O)CC[C@@]1(N=[N+]=[N-])C[C@@]23CC[C@H]4[C@@](C)(CCC[C@@]4(C)C(=O)OC)[C@@H]2CC[C@@H]1C3` [Compound 11], the IC50 [2] is reported as 1.8 ± 0.4 µM, the IC50 [3] is reported as 1.7 ± 0.5 µM and the “SI Capan-1” value [3] is reported as 1.1. For the same compound, the IC50 [4] was 1.4 ± 0.3 µM, the “SI DND-41” value [4] was 1.3 and the IC50 [5] was 1 ± 0.4 µM. The “SI HCT-116” value [5] was 1.8, the IC50 [6] was 3 ± 1.4 µM and the IC50 [7] was 8.8 ± 2.2 µM. For the same compound, the IC50 [8] was 1.3 ± 0.1 µM, the “SI NCI-H460” value [8] was 1.4 and the IC50 [9] was 0.5 ± 0.2 µM. For the same compound, the “SI Z-138” value [9] was 3.6, the SImax [10] was 3.6 and the “IC50 for retina (hTERT RPE-1) cells fold higher than for cancerous cells” value [10] was “up to 43 fold”. For the same compound, the IC50 [10] was 0.5 ± 0.2 µM.

With `COC(=O)C1(C)CCCC2(C)C3CCC4CC3(CCC12)CC41CCC(=O)N1` (stereo not drawn) [Compound 12] the IC50 [2] was 7.6 ± 0.5 µM, the IC50 [3] was 1.2 ± 0.7 µM and the “SI Capan-1” value [3] was 6.3. The IC50 [4] was 21.4 ± 10.1 µM, the IC50 [5] was 0.8 ± 0.2 µM and the “SI HCT-116” value [5] was 9.5. For the same compound, the IC50 [6] was 38.3 ± 17.8 µM, the IC50 [7] was 36.4 ± 11.5 µM and the IC50 [8] was 1.4 ± 0.1 µM. The “SI NCI-H460” value [8] was 5.4, the IC50 [9] was 52 ± 33.4 µM and the SImax [10] was 9.5. For the same compound, the “IC50 for retina (hTERT RPE-1) cells fold higher than for cancerous cells” value [10] was “up to 43 fold” and the IC50 [10] was 0.8 ± 0.2 µM.

For `COC(=O)C1(C)CCCC2(C)C3CCC4CC3(CCC12)CC41CCCN1` (stereo not drawn) [Compound 13], the IC50 [2] was 32.2 ± 2 µM, the IC50 [3] was 11.5 ± 1 µM and the “SI Capan-1” value [3] was 2.8. The IC50 [4] was 6.1 ± 1.1 µM, the “SI DND-41” value [4] was 5.3 and the IC50 [5] was 11.6 ± 0.5 µM. For the same compound, the “SI HCT-116” value [5] was 2.8, the IC50 [6] was 8.3 ± 1.3 µM and the “SI HL-60” value [6] was 3.9. The IC50 [7] was 3.2 ± 1 µM, the “SI K-562” value [7] was 10.1 and the IC50 [8] was 1 ± 0.1 µM. For the same compound, the “SI NCI-H460” value [8] was 32.2, the IC50 [9] was 9.5 ± 0.9 µM and the “SI Z-138” value [9] was 3.4. For the same compound, the SImax [10] was 32.2, the “IC50 for retina (hTERT RPE-1) cells fold higher than for cancerous cells” value [10] was “up to 43 fold” and the IC50 [10] was 1 ± 0.1 µM.

In the case of `COC(=O)[C@]1(C)CCC[C@@]2(C)[C@@H]3CC[C@@H]4C[C@@]3(CC[C@@H]21)C[C@@]4(CCC(=O)O)N=[N+]=[N-]` [Compound 14], the IC50 [2] is reported as 26.2 ± 0.9 µM, the IC50 [3] is reported as 44.5 ± 8.3 µM and the IC50 [4] is reported as 44.5 ± 4.8 µM. For the same compound, the IC50 [5] was 5.8 ± 0.1 µM, the “SI HCT-116” value [5] was 4.5 and the IC50 [6] was 46.2 ± 9.1 µM. It also gave an IC50 [7] of 41 µM, an IC50 [8] of 31.1 ± 1.6 µM and an IC50 [9] of 22.7 µM. For the same compound, the “SI Z-138” value [9] was 1.2.

For `COC(=O)C1(C)CCCC2(C)C3CCC4CC3(C=C4CCC#N)CCC12` (stereo not drawn) [Compound 16], the IC50 [2] was 38.2 ± 5.1 µM, the IC50 [3] was 18.1 ± 3.4 µM and the “SI Capan-1” value [3] was 2.1. The IC50 [4] was 7.8 ± 1 µM, the “SI DND-41” value [4] was 4.9 and the IC50 [5] was 19 ± 5.7 µM. The “SI HCT-116” value [5] was 2.0, the IC50 [6] was 33.6 ± 2.6 µM and the “SI HL-60” value [6] was 1.1. For the same compound, the IC50 [7] was 58.4 ± 2.5 µM, the IC50 [8] was 15.4 ± 6 µM and the “SI NCI-H460” value [8] was 2.5. The IC50 [9] was 22.1 ± 11.4 µM, the “SI Z-138” value [9] was 1.7 and the SImax [10] was 4.9. The IC50 [10] was 7.8 ± 1 µM.
